Data: patent US6147078A, “Pyrazinone thrombin inhibitors” (Merck & Co., Inc., priority 1999, dated 2000)

Experiments:
[1] = Metabolite identification in urine of male, bile duct-cannulated rats after intravenous dosing; assay type: in vivo, rat; conditions: carbon 14 labeled, intravenous 20 mg/kg in saline, urine collected over 24 hours
Method: Purification of 3-(2-Phenethyleneamino)-6-hydroxymethyl-1-(2-methyl-6-amino-3-methylenecarboxamidomethyl)pyrazin-2-one from male, bile duct-cannulated rats.
(§1) Rats were dosed intravenously with carbon 14 labeled [drawing 16] at 20 mg/kg in saline at 1 mL/kg. Bile and urine were collected periodically over 24 hours. Aliquots of these were analyzed for total radioactivity. Urine was also fractionated by HPLC using Zorbax XDB-C8 column eluted with 0.1% trifluoroacetic acid-water and acetonitrile gradient, and the fractions analyzed by mass spectrometry.

thrombin = test: Bioassay of HPLC urine fractions for inhibitory effect on thrombin activity; assay type: biochemical; conditions: urine HPLC fraction from rats, evaporated to dryness
Method: as §1
In another procedure, the urine was fractionated by HPLC. An aliquot of the fractions was assayed for total radioactivity, and the remaining volume was evaporated to dryness, under nitrogen, and bioassayed for inhibitory effect on the thrombin activity.

SMILES	metabolite in urine (site of hydroxylation) [1]	inhibitory effect on the thrombin activity (thrombin)
Cc1nc(N)ccc1CNC(=O)Cn1c(C)cnc(NCCc2ccccc2)c1=O	hydroxylation on the methylpyrazinone moiety	–
Cc1nc(N)ccc1CNC(=O)Cn1c(CO)cnc(NCCc2ccccc2)c1=O [6-HYDROXYMETHYL-3-(2-PHENETHYLAMINO )-1-(2-AMINO-6-METHYL-5-METHYLCARBOXAMIDOMETHYLPYRIDINYL)-PYRAZINONE]	–	significant inhibitory activity
